Measured values: PubChem BioAssay AID2060483 (Molecular Pharmacology Branch, DTP, NCI, 2025)
Several values for one entry are separate records, joined by “and”; a condition that tells them apart may be missing. Equal entries are not always repeated.

Tested on: K24384-001-R-PDC complex spheroids, viability
Assay: Anticancer human tumor K24384-001-R-PDC patient-derived pancreatic adenocarcinoma cell line growth inhibition [GQUAD]
Settings: for viability, T/C: stronger effect = lower value
Source text: DNA G-quadruplex Stabilizer Agents in Combinations in Complex Spheroids
A high-throughput screen of multi-cell type tumor spheroids was designed to identify active combinations of DNA G-quadruplex stabilizer agents and targeted small molecules. Complex spheroids include a stromal component modeled by human endothelial cells (HUVEC) and fibroblasts modeled by human mesenchymal stem cells (MSCs). The concentration ranges selected for each drug and investigational agent were based upon clinically achievable concentrations if the clinical Cmax of the agent was known.
Compounds. The drugs and investigational agents: pidnarulex (CX-5461; NSC782164), APTO-253 (NSC789042), BRACO-19 (NSC847499), peposertib (NSC802822), ceralasertib (NSC780249), elimusertib (NSC800525), camonsertib (NSC841442), AZD-1390 (NSC803789), olaparib (NSC753686), talazoparib (NSC767125), ART-558 (NSC835418), sotorasib (NSC818433), MRTX-1133 (NSC836407), SN-38 (NSC673596), topotecan (NSC609699), etoposide (NSC141540), doxorubicin (NSC123127), gemcitabine (NSC613327), 5-fluorouracil (NSC19893), paclitaxel (NSC125973), vemurafenib (NSC761431), panobinostat (NSC761190), R-306465 (JNJ-16241199; NSC773264), adavosertib (NSC754352), TP-3654 (NSC805149), carboplatin (NSC241240), KSQ-4279 (NSC840948), and staurosporine (NSC755774) were obtained from the National Cancer Institute (NCI) Developmental Therapeutics Program Chemical Repository (34). The FDA-approved anticancer drug set is available from the NCI Developmental Therapeutics Program. […] The stock solutions were prepared in dimethyl sulfoxide (DMSO, Sigma-Aldrich, St. Louis, MO, cat. D2650) at 800-fold the tested concentration and stored at -70 degrees C prior to their use. All drugs and investigational agents were tested over a range starting from a high concentration at or near the clinical Cmax and decreasing in half-log increments. If the clinical Cmax for an agent had not been determined, the highest concentration tested was 10 microM.
2.3 Cell Culture. All cells were maintained in an incubator at 37 degrees C and 5% CO2 with 95% humidity. The PDC lines were cultured according to standard operating procedures established by the NCI PDMR. All PDCs were thawed and cultured in Matrigel-coated flasks prepared with a working solution of 1X Ham's F-12 nutrient mix, without supplementation (Invitrogen, cat. 11765054), 100 U/mL penicillin-streptomycin (Invitrogen, cat. 15140122), and 2.5% Matrigel (Corning Inc., cat. 354248) for the first three passages. The 857933-349-R-J2-PDC line was cultured in 6C/Colon 1B media, which includes advanced DMEM/F-12 (Thermo Fisher Scientific, cat. 12634028), 10 mM HEPES (Thermo Fisher Scientific, cat. 15630080), 1X GlutaMAX supplement (Thermo Fisher Scientific, cat. 35050061), 0.1 mg/mL primocin (InvivoGen, cat. ant-pm-2), 10% defined fetal bovine serum, heat inactivated (HyClone Laboratories Inc., cat. SH30070.03HI), 50% L-WRN conditioned media (ATCC, cat. CRL-3276), 1.25 mM N-Acetyl-L-cysteine (Sigma-Aldrich, cat. A9165), 10 mM nicotinamide (Sigma-Aldrich, cat. N0636), 1X B-27 supplement (Thermo Fisher Scientific, cat. 17504044), 1X N-2 supplement (Thermo Fisher Scientific, cat. 17502048), 10 microM Y-27632 dihydrochloride (Tocris Bioscience, cat. 1254), and 50 ng/mL human EGF recombinant protein (Thermo Fisher Scientific, cat. PHG0311). The 485176-168-R4-J1-PDC line was cultured in Panc media, which includes all 6C/Colon 1B media components plus 100 ng/mL human FGF-10 (Thermo Fisher Scientific, cat. 100-26), 500 nM SB-431542 (Selleckchem, cat. S1067), and gastrin (Tocris, cat. 3006).
[…]
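Also: spheroids exposed to compounds for seven days.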

| SMILES | viability, T/C (compound 0.0316 µM) | viability, T/C (compound 0.1 µM) | viability, T/C (compound 0.316 µM) | viability, T/C (compound 1 µM) | viability, T/C (compound 3.16 µM) | viability, T/C (compound 10 µM) | IC50 (curve of compound) | viability, T/C (compound 0.000999 µM) | viability, T/C (compound 0.00316 µM) | viability, T/C (compound 0.00999 µM) | viability, T/C (compound 0.0999 µM) | IC50 (compound alone, run of 02/26/2024) [nM] |
| --- | --- | --- | --- | --- | --- | --- | --- | --- | --- | --- | --- | --- |
| C#Cc1c(F)ccc2cc(O)cc(-c3ncc4c(N5CC6CCC(C5)N6)nc(OCC56CCCN5CC(F)C6)nc4c3F)c12 (stereo not drawn) | 107% and 94.9% and 91.9% | 99.2% and 99.3% and 86.2% | 98.2% and 95.7% and 83.9% | 74.1% and 52.7% and 53% | 35.6% and 35.4% and 33.3% | 19.8% and 14.8% and 18.1% | 2060 nM and 1350 nM and 1320 nM |  |  |  |  |  |
| C=CC(=O)N1CCN(c2nc(=O)n(-c3c(C)ccnc3C(C)C)c3nc(-c4c(O)cccc4F)c(F)cc23)C(C)C1 (stereo not drawn) | 110% and 115% and 96.6% | 95.3% and 80% and 113% | 105% and 99.4% and 119% | 91.2% and 103% and 99.1% | 104% and 116% and 106% | 93% and 80.7% and 94.2% | > 10000 nM |  |  |  |  |  |
| C=CCn1c(=O)c2cnc(Nc3ccc(N4CCN(C)CC4)cc3)nc2n1-c1cccc(C(C)(C)O)n1 | 95.1% and 91% and 82% | 83.3% and 71% and 74.8% | 47.9% and 50.8% and 64% | 20.5% and 17.9% and 22.7% | 13.4% and 12.8% and 16.7% | 19.4% and 15.9% and 18.2% | 290 nM and 271 nM and 466 nM |  |  |  |  |  |
| CC(=O)O[C@H]1C(=O)[C@@]2(C)[C@H]([C@H](OC(=O)c3ccccc3)[C@]3(O)C[C@H](OC(=O)[C@H](O)[C@@H](NC(=O)c4ccccc4)c4ccccc4)C(C)=C1C3(C)C)[C@]1(OC(C)=O)CO[C@@H]1C[C@@H]2O | 33.8% and 31.3% and 53.9% | 25.3% and 22% and 20.2% | 23.4% and 18.5% and 29.6% | 20.5% and 21.1% and 28.1% | 25.6% and 20.9% and 26.2% | 28.5% and 28.9% and 37.3% | < 31.6 nM |  |  |  |  |  |
| CC(C)(O)C1CCC(Nc2ccc3ncc(-c4cccc(C(F)(F)F)c4)n3n2)CC1 (stereo not drawn) | 103% and 104% and 99% | 95.2% and 105% and 94.7% | 113% and 101% and 108% | 61% and 80.7% and 57.2% | 25% and 33.2% and 28.8% | 48% and 40.7% and 36% | 1680 nM and 2240 nM and 1390 nM |  |  |  |  |  |
| CC(C)n1c(=O)n(C)c2cnc3cc(F)c(-c4ccc(OCCCN5CCCCC5)nc4)cc3c21 | 108% and 84.2% and 93.7% | 89% and 95.3% and 95.1% | 116% and 97.8% and 99.7% | 120% and 88% and 123% | 123% and 107% and 119% | 92.1% and 80.3% and 90.2% | > 10000 nM |  |  |  |  |  |
| CC1COCCN1c1cc(-c2ccnn2C)c2ccnc(-c3ccn[nH]3)c2n1 (stereo not drawn) | 85.2% and 75.3% and 76.9% | 49.8% and 45% and 54.3% | 41.3% and 28.3% and 40.7% | 37.1% and 26.5% and 29.7% | 38.4% and 30.4% and 33.3% | 31.8% and 32.7% and 33.8% | 109 nM and 82.7 nM and 141 nM |  |  |  |  |  |
| CC1COCCN1c1cc(C2(O)CC3CCC(C2)O3)c2cnn(-c3ccn[nH]3)c2n1 (stereo not drawn) | 80.5% and 78% and 64.4% | 43.7% and 56.4% and 38.6% | 40% and 45.8% and 33.4% | 29.1% and 26.3% and 24.6% | 24.8% and 25.7% and 32.5% | 13.2% and 19% and 15% | 108 nM and 178 nM and 64.2 nM |  |  |  |  |  |
| CC1COCCN1c1cc(C2(S(C)(=N)=O)CC2)nc(-c2ccnc3[nH]ccc23)n1 (stereo not drawn) | 92.8% and 89.6% and 108% | 96% and 93.6% and 99.5% | 107% and 102% and 114% | 65.9% and 56.5% and 74.8% | 34.9% and 32.8% and 40% | 33% (2×) and 26.7% | 1770 nM and 1320 nM and 2110 nM |  |  |  |  |  |
| CCCS(=O)(=O)Nc1ccc(F)c(C(=O)c2c[nH]c3ncc(-c4ccc(Cl)cc4)cc23)c1F | 99.8% and 109% and 105% | 107% and 112% and 96.4% | 128% and 125% and 130% | 119% and 110% and 116% | 137% and 147% and 123% | 46.2% and 54.7% and 52.6% | 9400 nM and > 10000 nM |  |  |  |  |  |
| CC[C@@]1(O)C(=O)OCc2c1cc1n(c2=O)Cc2cc3c(CN(C)C)c(O)ccc3nc2-1 | 82.8% and 82.3% and 80.1% |  | 53% and 58.5% and 51.3% |  |  |  | > 316 nM | 103% and 111% and 108% | 83.2% and 92.2% and 77.5% | 97.7% and 100% and 114% | 66.6% and 50.2% and 63.6% |  |
| CCc1c2c(nc3ccc(O)cc13)-c1cc3c(c(=O)n1C2)COC(=O)[C@]3(O)CC | 43.4% and 33% and 29.1% |  | 24.3% (2×) and 23.9% |  |  |  | 12.8 nM and 4.92 nM and 15.7 nM | 99.6% and 68.6% and 79.3% | 52.9% and 58% and 61.9% | 65.9% and 39.2% and 63.5% | 27.3% and 38% and 31.1% |  |
| CN(C)c1ccc(Nc2c3ccc(NC(=O)CCN4CCCC4)cc3nc3cc(NC(=O)CCN4CCCC4)ccc23)cc1 | 101% [middle of 12 runs] | 100% [middle of 12 runs] | 101% [middle of 12 runs] |  |  |  |  |  |  |  |  | > 10000 |
